Measured values published in patent US9795632B2, “Cancer treatments and compositions for use thereof” (priority 2012, dated 2017).

How the values were obtained:
[1] = test system: capillary circulation of the skin; assay: Laser Doppler circulation study in five human subjects (Example 7); format: in vivo; details: positive control formulation containing 0.1% methyl nicotinate
Text: This example illustrates delivery of nitric oxide formulations to five human subjects, using procedures and formulations similar to those discussed in Example 5. Each person served as their own control for the testing. A Moor Instruments Laser Doppler was used to determine circulation. […] The formulations used produce positive, almost immediate results when applied to the skin which, in these studies, was manifested by vasodilatation of the cutaneous vascular system. For each subject, the following creams were applied: a negative control formulation (containing no NO), 0.010 gram of a 10,000 ppm NO formulation, 0.020 gram of a 10,000 ppm NO formulation, and a positive control formulation containing 0.1% methyl nicotinate. The formulations were prepared using procedures similar to those discussed in Example 1.

[2] = test system: micro-capillary blood flow to skin; assay: Laser Doppler microcirculation study in three human female subjects, 10,000 ppm NO (Example 5); format: in vivo; details: applied to the skin at 1/10% in alcohol
Description: This example illustrates delivery of nitric oxide formulations similar to those discussed herein in humans. In these studies, laser Doppler studies were performed on three human female subjects. […] The formulations used produce positive, almost immediate results when applied to the skin which, in these studies, was manifested by vasodilatation of the cutaneous vascular system.
While nitric oxide has many physiological effects, the purpose of these studies was to measure physiological effects that would be relatively easy to determine, and which would be noninvasive. […] Nitric oxide is capable of […] the capillary bed, and thus, laser Doppler was selected.
The formulation used in these studies contained nitric oxide dispersed in a lipid matrix. […] This provided a stable measuring device as determined by multiple normal evaluations of the capillary blood flow without treatment of nitric oxide.
A known positive control, methyl nicotinate, was applied to the skin at a concentration of 1/10% in alcohol. […] The laser Doppler device accurately measured these parameters.
In these studies, the participants were healthy females aged 30 to 55 years. They were in good health as determined by the medical history and were not taking any prescription medications. All study participants read and signed the informed consent statement prior to any study procedures being performed. […]

## COC(=O)c1cccnc1 [methyl nicotinate]
[1]
  Vasodilatation (laser Doppler): vasodilatation was observed
[2]
  Vasodilator response of positive control: rapid response typical of the vasodilator
